# Data: patent US12503452B2 (Curza Global, LLC, priority 2019, dated 2025)
# Structures can show the parent of a compound that is named as a salt. Where two headings read alike, the source gives them in different places.
# What was measured:
# [1] = test system: E. coli S30 extract (bacterial protein synthesis); experiment: E. coli S30 extract coupled transcription-translation luciferase assay (inhibition of bacterial protein synthesis); type: biochemical; settings: read-out: S30 IC50 (μM/% inhib.)
# Procedure: E. coli S30 extract: Inhibition of bacterial protein synthesis was determined using the E. coli S30 Extract System for Circular DNA (Promega catalog #L-2010) and Luciferase Assay Reagent (Promega catalog #E1500) with slight modifications to a published protocol. Fyfe, C., Sutcliffe, J. A. and Grossman, T. H. (2012) “Development and characterization of a Pseudomonas aeruginosa in vitro coupled transcription-translation assay system for evaluation of translation inhibitors” J. Microbiol. Methods 90(3), 256-261.
# Compounds were serial diluted in 0.5 mL microcentrifuge tubes by mixing and transferring 50 μL from the highest concentration to 50 μL of water, mixing and transferring 50 μL of this 2-fold dilution to 50 μL of water. This mixing and transferring was repeated so that there are a total of 8 tubes with serial dilutions of compound at 10× the desired screening concentration that are ultimately diluted to 1× by the addition of S30 luciferase synthesis mixture. Serial dilutions of compounds were added (2 μL) to wells in a black round bottom 96-well plate. Water (2 μL) was used as a “no inhibitor” control in 4 wells/plate. No DNA control reaction mixture (20 μL; see below) was used as a control in 4 wells/plate for background luminescence. S30 luciferase synthesis mixture (18 μL; see below) was added to wells with compounds or water mixture and incubated at 37° C. for 1 hour. Reactions were stopped by transferring to 4° C. refrigerator for 5 minutes then 25 μL of luciferase activity mix was added. Luminescence was measured using a BioTek Synergy HTX plate reader. % Inhibition was determined relative to no inhibitor controls.
# S30 luciferase synthesis mixture:
# • 445 μL S30 extract, circular • 712 μL S30 Premix without amino acids • 4.45 μL pBESTluc™ DNA (1 μg/μL) • 78 μL complete amino acid mixture • 267 μL water No DNA control: • 20 μL S30 extract, circular • 32 μL S30 Premix without amino acids • 7 μL complete amino acid mixture • 21 μL water Rabbit Reticulocyte lysate
# [2] = target: Rabbit Reticulocyte Lysate (eukaryotic protein synthesis); experiment: Rabbit reticulocyte lysate luciferase assay (inhibition of eukaryotic protein synthesis); type: biochemical; settings: read-out: Rabbit reticulocyte IC50 (μM/% inhib.)
# Procedure: Inhibition of eukaryotic protein synthesis was determined using the Rabbit Reticulocyte Lysate System, Nuclease-Treated from Promega (catalog #L-4960) with slight modifications to the manufacturer's protocol. Compounds were serial diluted in 0.5 mL microcentrifuge tubes by mixing and transferring 50 μL from the highest concentration to 50 μL of water, mixing and transferring 50 μL of this 2-fold dilution to 50 μL of water. This mixing and transferring was repeated so that there are a total of 8 tubes with serial dilutions of compound at 10× the desired screening concentration that are ultimately diluted to 1× by the addition of rabbit reticulocyte luciferase synthesis mixture. Serial dilutions of compounds were added ([…]) to wells in a black round bottom 96-well plate. Water (2.5 μL) was used as a “no inhibitor” control in 4 wells/plate. No RNA control reaction mixture ([…]; see below) was used as a control in 4 wells/plate for background luminescence. Rabbit reticulocyte luciferase synthesis mixture (22.5 μL; see below) was added to wells with compounds or water mixture and incubated at 30° C. for 90 minutes. Luciferase assay reagent (25 μL) was added with luminescence measured using a BioTek Synergy HTX plate reader. % Inhibition was determined relative to no inhibitor controls.
# Rabbit reticulocyte luciferase synthesis mixture:
# • 1,000 μL rabbit reticulocyte lysate • 5.7 μL Luciferase Control RNA (1 μg/μL) • 26 μL complete amino acid mixture • 395 μL water No RNA Control • 70 μL rabbit reticulocyte lysate • 2 μL complete amino acid mixture • 28 μL water Minimum Inhibitory Concentration (MIC)
# [3] = test system: E. coli (Ec); experiment: Broth microdilution minimum inhibitory concentration (MIC); type: cell-based; settings: Escherichia coli, E. coli, read-out: E. coli + bicarb MIC
# Procedure: A certified BSL-2 laboratory was used for testing. Compounds were evaluated using the broth microdilution minimum inhibitory concentration (MIC) and minimum bactericidal concentration (MBC) assays defined by Clinical and Laboratory Standards Institute (CLSI) in the M26-A guideline against S. aureus (Sa), E. coli (Ec), K. pneumoniae (Kp), A. baumannii (Ab), E. faecalis (Ef) and P. aeruginosa (Pa).
# MICs were determined using the Clinical Laboratory and Standards Institute (CLSI) Broth Microdilution Method with slight modification. Clinical and Laboratory Standards Institute (2012). “Methods for dilution antimicrobial susceptibility tests for bacteria that grow aerobically; approved standard, 9th ed. M07-A9. Clinical and Laboratory Standards Institute, Wayne, PA” Serial two-fold dilutions of compounds are prepared in sterile clear round-bottom 96-well plates.
# To prepare microdilution trays, two-fold dilutions of antimicrobial agent are prepared in growth medium: Cation-Adjusted Mueller-Hinton Broth (CAMHB), or CAMHB supplemented with sodium bicarbonate (6.25 or 25 mM final concentration prepared from a 1.0M stock solution) or CAMHB supplemented with heat inactivated human serum (Fisher Cat. #BP2657100) 0-50% by adding 200 μL of the highest concentration to be tested (64 μg/mL, for example) in row A, mixing and transferring 100 μL from row A to 100 μL growth medium in row B, then repeating the mixing and transferring through row H of the 96-well plate, discarding the excess 100 μL remaining. This slight modification to the CLSI protocol enables evaluation of MICs for 3 compounds per plate in triplicate, albeit with only 8 compound dilutions (CLSI protocol enables 2 compounds in triplicate with 10 dilutions). Bacterial suspensions are added to a final concentration of 5×10^4 CFU/well by adding 5 μL of a 1:10 dilution of a 0.5 McFarland suspension (1×10^8 CFU/mL) for each bacterium evaluated. Bacterial suspensions were prepared using the growth method described by CLSI. Well-isolated colonies (3-5 from an agar plate) were selected using a sterile loop and used to inoculate a tube containing 4 mL of CAMHB. The cultures are incubated at 35±2° C. until it achieves or exceeds the turbidity of the 0.5 McFarland standard, determined by measuring A600nm (usually two to six hours). When growth exceeds a 0.5 McFarland standard, the turbidity is adjusted with broth to be equivalent to a 0.5 McFarland standard.
# [4] = class by IC50 or % inhibition @ 1 μM
# [5] = growth medium supplemented with sodium bicarbonate
# [6] = growth medium with sodium bicarbonate
SMILES,"IC50 [1, 4] [µM]","IC50 [2, 4] [µM]",other results
CC(C)(N)C(=O)N1CCCC2C1CCCN2C(=O)Nc1ccn(-c2ccc(CN3CCC(N)CC3)cc2)c(=O)n1 (centres unmarked) [Compound 86],> 1,> 1,
CC(C)(N)C(=O)N1CC2CCC1CN2C(=O)Nc1ccn(-c2ccc(CN3CCC(N)CC3)cc2)c(=O)n1 (centres unmarked) [Compound 87],> 1,> 1,
C[C@@H]1CN(C(=O)C(C)(C)N)[C@H](C)CN1C(=O)Nc1ccn(-c2ccc(CN3CCC(N)CC3)cc2)c(=O)n1 [Compound 88],> 1,> 1,
CCOC(=O)C(c1ccc(-n2ccc(NC(=O)N3CCN(C(=O)C(C)(C)N)CC3)nc2=O)cc1)N1CCC(N)CC1 (centres unmarked) [Compound 92],> 1,,"MIC [3, 5]: > 32 µg/mL"
CC(C)(N)C(=O)N1CCN(C(=O)Nc2ccn(-c3ccc(C(C(=O)O)N4CCC(N)CC4)cc3)c(=O)n2)CC1 (centres unmarked) [Compound 93],> 1,,"MIC [3, 5]: > 32 µg/mL"
Cc1cc(-n2ccc(NC(=O)N3CCN(C(=O)CC(C)(C)N)CC3)nc2=O)ccc1CN1CCC(N)CC1 [Compound 94],> 1,> 1,
C[C@](N)(CO)C(=O)N1CCN(C(=O)Nc2ccn(-c3ccc(CN4CCC(N)CC4)cc3)c(=O)n2)CC1 [Compound 97],< 0.5,> 1,"MIC [3, 5]: 8 to 32 µg/mL"
C[C@H](N)C(=O)NC1CCN(Cc2ccc(-n3ccc(NC(=O)N4CCN(C(=O)[C@@](C)(N)CO)CC4)nc3=O)cc2)CC1 [Compound 100],0.5 to 1,> 1,
Cc1cc(-n2ccc(NC(=O)N3CCN(C(=O)C(C)(N)CO)CC3)nc2=O)ccc1CN1CCC(N)CC1 (centres unmarked) [Compound 101],0.5 to 1,> 1,
CC(C)(N)C(=O)N1CCN(C(=O)Nc2ccn(-c3cccc(CN4CCC(NC(=N)N)CC4)c3)c(=O)n2)CC1 [Compound 102],> 1,> 1,
Cc1cc(-n2ccc(NC(=O)N3CCN(C(=O)C(C)(C)N)CC3)nc2=O)ccc1CN1CCC(NC(=N)N)CC1 [Compound 104],< 0.5,> 1,
CC(C)(N)C(=O)N1CCN(C(=O)Nc2ccn(-c3ccc(CN4CCC(NC(=N)N)CC4)cc3)c(=O)n2)CC1 [Compound 105],< 0.5,< 0.5,
CC(C)(N)CC(=O)N1CCN(C(=O)Nc2ccn(-c3ccc(CN4CCC(N)CC4)c(C(F)(F)F)c3)c(=O)n2)CC1 [Compound 106],> 1,> 1,
CC(C)(N)C(=O)N1CCN(C(=O)Nc2ccn(-c3ccc(CN4CCC(C(F)(F)F)CC4)cc3)c(=O)n2)CC1 [Compound 107],> 1,> 1,
CC(C)(N)C(=O)N1CCN(C(=O)Nc2ccn(-c3ccc(CN4CCOC(CN)C4)cc3)c(=O)n2)CC1 (centres unmarked) [Compound 135],> 1,> 1,
CC(C)(N)C(=O)N1CCN(C(=O)Nc2ccn(-c3ccc(CC[N+]4(C)CCC(N)CC4)cc3)c(=O)n2)CC1 (centres unmarked) [Compound 196],< 0.5,> 1,

SMILES,"IC50 [1, 4] [µM]","IC50 [2, 4] [µM]",other results
C[C@H](N)C1CCN(Cc2ccc(-n3ccc(NC(=O)N4CCN(C(=O)C(C)(C)N)[C@H](C)C4)nc3=O)cc2)CC1 [Compound 206],> 1,> 1,
C[C@H](N)C1CCN(Cc2ccc(-n3ccc(NC(=O)N4CCN(C(=O)[C@@](C)(N)CO)C[C@H]4C)nc3=O)cc2)CC1 [Compound 207],> 1,> 1,
CC(C)(N)C(=O)N1CCN(C(=O)Nc2ccn(-c3ccc(CN4CC[C@@H](N)[C@H](F)C4)cc3)c(=O)n2)CC1 [Compound 208],> 1,,"MIC [3, 6]: 8 to 32 µg/mL"
CN(C)C1CCN(Cc2ccc(-n3ccc(NC(=O)N4CCN(C(=O)C(C)(C)N)CC4)nc3=O)cc2)CC1 [Compound 214],< 0.5,,"MIC [3, 6]: < 8 µg/mL"
CC(C)(N)C(=O)N1CCN(C(=O)Nc2ccn(-c3ccc(CN4CCC(O)(CN)CC4)cc3)c(=O)n2)CC1 [Compound 215],< 0.5,,"MIC [3, 6]: < 8 µg/mL"
CO[C@@H]1CN(Cc2ccc(-n3ccc(NC(=O)N4CCN(C(=O)C(C)(C)N)CC4)nc3=O)cc2)CC[C@H]1N [Compound 216],> 1,,"MIC [3, 6]: 8 to 32 µg/mL"
CC(C)(N)C(=O)N1CCN(C(=O)Nc2ccn(-c3ccc(CN4CCC(CCN)CC4)cc3)c(=O)n2)CC1 [Compound 218],< 0.5,> 1,"MIC [3, 6]: < 8 µg/mL"
C[C@H](N)C1CCN(Cc2ccc(-n3ccc(NC(=O)N4CCN(C(=O)[C@@](C)(N)CO)CC4)nc3=O)cc2)CC1 [Compound 221],< 0.5,> 1,"MIC [3, 6]: < 8 µg/mL"
CC(C)(N)C(=O)N1CCN(Cc2ccc(-n3ccc(NC(=O)N4CCN(C(=O)C(C)(C)N)CC4)nc3=O)cc2)CC1 [Compound 225],> 1,> 1,
CC1(N)CCN(Cc2ccc(-n3ccc(NC(=O)N4CCN(C(=O)[C@@](C)(N)CO)CC4)nc3=O)cc2Cl)CC1 [Compound 360],,,IC50 ([1]; % inhibition @ 1 μM): < 0.5 µM; IC50 ([2]; % inhibition @ 1 μM): > 1 µM
CC(C)(N)CC(=O)N1CCN(C(=O)Nc2ccn(-c3cccc(CN4CCC(N)CC4)c3)c(=O)n2)CC1 [Compound 362],,,IC50 ([1]; % inhibition @ 1 μM): > 1 µM; IC50 ([2]; % inhibition @ 1 μM): > 1 µM
"CC(C)(N)CC(=O)N1CCN(C(=O)Nc2ccn(-c3cccc(CN4CCC(C)(N)CC4)c3)c(=O)n2)CC1 [Compound 363, hydrochloride salt]",,,IC50 ([1]; % inhibition @ 1 μM): > 1 µM; IC50 ([2]; % inhibition @ 1 μM): > 1 µM
"CC(C)[C@H](N)C(=O)NC(C)(C)C(=O)N1CCN(C(=O)Nc2ccn(-c3ccc(CN4CCC(N)CC4)cc3)c(=O)n2)CC1 [Compound 364, hydrochloride salt]",,,IC50 ([1]; % inhibition @ 1 μM): < 0.5 µM; IC50 ([2]; % inhibition @ 1 μM): > 1 µM
"CC(C)(N)C(=O)N1CCN(C(=O)Nc2ccn(-c3ccc(CN4CC(CCN)(C(=O)O)C4)cc3)c(=O)n2)CC1 [Compound 369, hydrochloride salt]",,,IC50 ([1]; % inhibition @ 1 μM): > 1 µM; IC50 ([2]; % inhibition @ 1 μM): > 1 µM
CC(C)(N)C(=O)N1CCN(C(=O)Nc2ccn(-c3ccc(CN4CCC(F)(F)CC4)cc3)c(=O)n2)CC1 [Compound 383],,,IC50 ([1]; % inhibition @ 1 μM): > 1 µM; IC50 ([2]; % inhibition @ 1 μM): > 1 µM
